Key:
male Sprague-Dawley rats = test: Reversal of amphetamine-induced hyperlocomotion in rats; format: in vivo, rat; details: 10 mg/kg p.o.
Experimental: Drugs: d-Amphetamine hemisulfate was obtained from Sigma (St. Louis, Mo.). Salt-correction was used to determine the correct amount of the d-amphetamine hemisulfate form in milligrams to add to sterile water in order to yield a 0.75 mg/mL solution, which would be dosed at 1 mL/kg body weight of each animal. […] The solutions were formulated so that animals were injected with a volume equal to 10 mL/kg body weight for all compounds. The appropriate amount according to the dosage was mixed in 10% Tween 80 (Sigma) 90% sterile water. The mixtures were then vortexed and stored in a 39° C. sonication bath for 1 hour, until in a microsuspension (except for the highest dose, which was a suspension).
Animals: Male Sprague-Dawley rats weighing 239-300 grams and averaging 265 g (Harlan, Inc., Indianapolis, Ind.) were used. They were housed in the animal care facility certified by the American Association for the Accreditation of Laboratory Animal Care (AALAC) under a 12-hour light/dark cycle (lights on: 6 a.m.; lights off: 6 p.m.) and had free access to food and water. The animals used in this experiment were food-deprived the evening before experimentation for oral dosing of compound/vehicle. The experimental protocols performed during the light cycle were approved by the Institutional Animals Care and Use Committee of Vanderbilt University and conformed to the guidelines established by the National Research Council Guide for the Care and Use of Laboratory Animals.
Amphetamine-induced Hyperlocomotion: Male Harlan Sprague Dawley rats were habituated in Smart Open Field locomotor activity test chambers (Hamilton-Kinder, San Diego, Calif.) with 16×16 photo beams to automatically record locomotor activity. […] They were monitored for an additional 30 minutes and then injected subcutaneously with vehicle or […] amphetamine. Animals were then monitored for an additional 60 minutes, for a total of 120 minutes. Data were expressed as changes in ambulation defined as total number of beam breaks per 5 minute interval. […]
Data Analysis: Behavioral data were analyzed using a two-way ANOVA with main effects of treatment and time. […] In addition, the total number of beam breaks from the amphetamine administration (65 min) to the end of the study (120 min) was calculated and graphed. Percent Reversal was calculated as follows using Microsoft Excel: In each animal, total ambulation from t=65 to t=120 was summed. The mean of each sum was calculated in the VAMP group. Then, for each animal, Percent Reversal was calculated with the following formula: Percent Reversal=100−{[(total ambulation in each animal from t=65 to t=120)/(mean of each sum from t=65 to t=120 in VAMP group)]*100}. The mean Percent Reversal, as well as the standard error, was calculated for each dose group using GraphPad Prism V5.04.

Human M4 = molecular target: T1, Human M4 (Homo sapiens, UniProt P08173); test: mAChR M4 cell-based functional assay (calcium flux, potentiation of EC20 acetylcholine response); details: for Emax at 30 µM: % ACh maximum at 30 μM, human M4; for EC50: CHO-K1 cells with human M4 and Gqi5, increase in EC20 acetylcholine response
T1 construct: expressed in transfected cells
T1 sequence (P08173 1-479): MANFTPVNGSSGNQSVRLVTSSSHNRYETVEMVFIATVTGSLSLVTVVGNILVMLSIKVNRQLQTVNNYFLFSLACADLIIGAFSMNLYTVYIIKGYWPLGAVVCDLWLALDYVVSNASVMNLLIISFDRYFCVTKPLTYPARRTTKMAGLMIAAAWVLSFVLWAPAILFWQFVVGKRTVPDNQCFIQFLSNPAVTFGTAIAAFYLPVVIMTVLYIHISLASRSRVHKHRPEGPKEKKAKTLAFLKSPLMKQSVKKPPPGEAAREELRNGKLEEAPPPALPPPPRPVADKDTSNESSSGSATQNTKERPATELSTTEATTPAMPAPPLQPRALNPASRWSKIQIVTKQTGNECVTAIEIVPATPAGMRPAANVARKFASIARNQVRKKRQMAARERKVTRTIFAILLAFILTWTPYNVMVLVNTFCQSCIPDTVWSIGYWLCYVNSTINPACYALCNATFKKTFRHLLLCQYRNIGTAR

SMILES	Emax at 30 µM (Human M4) [%]	EC50 (Human M4) [nM]	percent reversal of amphetamine-induced hyperlocomotion (male Sprague-Dawley rats) [%]
Cc1nnc2sc(C(=O)NCc3ccc(S(=O)(=O)C(F)(F)F)cc3)c(N)c2c1C [VU0467154-9A, 5-amino-3,4-dimethyl-N-(4-((trifluoromethyl)sulfonyl)benzyl)thieno[2,3-c]pyridazine-6-carboxamide, reference compound]	–	–	55.0
Cc1nc(C)c2c(n1)sc1c(N3CCC(F)(F)C3)nccc12 [Compound 25, 8-(3,3-difluoropyrrolidin-1-yl)-2,4-dimethyl-pyrido[4,5]thieno[1,2-b]pyrimidine]	94.6	42	–
Cc1nc(C2CC2)nc2sc3c(N4CCOCC4)nccc3c12 [Compound 30, 4-(2-cyclopropyl-4-methyl-pyrido[4,5]thieno[1,2-d]pyrimidin-8-yl)morpholine]	74.2	449	–
Cc1nc(C)c2c(n1)sc1c(NCc3ccc(C(C)(C)O)cc3)ncc(Cl)c12 [Compound 41, 2-(4-(((5-chloro-2,4-dimethylpyrido[4′,3′:4,5]thieno[2,3-d]pyrimidin-8-yl)amino)methyl)phenyl)propan-2-ol]	91.9	3300	–
Cc1nc(C)c2c(n1)sc1c(NC3CCCC3)nccc12 [Compound 15, N-cyclopentyl-2,4-dimethylpyrido[4′,3′:4,5]thieno[2,3-d]pyrimidin-8-amine]	73.3	134	–
Cc1nc(C)c2c(n1)sc1c(N3CC4(COC4)C3)ncnc12 [Compound 10, 6-(7,9-dimethylthieno[2,3-d:4,5-d′]dipyrimidin-4-yl)-2-oxa-6-azaspiro[3.3]heptane]	76	1580	–
Cc1nc(C2CC2)nc2sc3c(NC4CC4)nccc3c12 [Compound 32, N,2-dicyclopropyl-4-methyl-pyrido[4,5]thieno[1,2-d]pyrimidin-8-amine]	103	129	–

Second part, led by results:

Emax at 30 µM (Human M4) [%]	EC50 (Human M4) [nM]	SMILES	percent reversal of amphetamine-induced hyperlocomotion (male Sprague-Dawley rats) [%]
84.4	169	COc1ccc(CNc2nccc3c2sc2nc(C)nc(C)c23)cc1F [Compound 13, N-(3-fluoro-4-methoxybenzyl)-2,4-dimethylpyrido[4′,3′:4,5]thieno[2,3-d]pyrimidin-8-amine]	–
62.4	6690	Cc1nc(C2CC2)nc2sc3c(NCc4ccc(F)c(F)c4)nccc3c12 [Compound 29, 2-cyclopropyl-N-[(3,4-difluorophenyl)methyl]-4-methyl-pyrido[4,5]thieno[1,2-d]pyrimidin-8-amine]	–
85.8	237	Cc1nc(C)c2c(n1)sc1c(NCc3ccc(C(C)(C)O)c(F)c3)nccc12 [Compound 31, 2-[4-[[(2,4-dimethylpyrido[4,5]thieno[1,2-b]pyrimidin-8-yl)amino]methyl]-2-fluoro-phenyl]propan-2-ol]	–
